Laboratory results: patent EP2889299A1, “Fluorescent red emitting functionalizable pH probes” (Paris Sciences et Lettres - Quartier Latin, priority 2013, dated 2015)
Like-named read-outs stand apart in the source and are kept apart here.

Experiments:
[1] = Optical properties of the second (blue) fluorophore; assay type: physicochemical; conditions: measured in CH3CN/H2O
From the text: In addition to having the correct absorption and emission wavelengths, the chosen second fluorophore must feature a terminal alkyne to make it "clickable" with the azide-containing pH probe I-1. The acridone 5 was selected, having the following optical properties (measured in CH3CN/H2O): […]

F98 cells = experiment: Dose response by flow cytometry (probe internalization); assay type: cell-based, rat; conditions: F98 cells incubated for two hours
Description: Cell calture for flow cytometry, dose response and cellular imaging: F98 and CHO-K1 cell lines (purchased from ATCC) were maintained at 37°C in 5% CO2 in DMEM/F-12 nutrient medium (Invitrogen, Cergy Pontoise, France) supplemented with 2% (v/v) heat-inactivated fetal bovine serum (Invitrogen) and 100 µg/mL streptomycine and 100 units/mL penicillin (Invitrogen).
Fluorescence Activated Cell Sorting Analyses: F98 cells were incubated with various concentrations of pH probes in DMEM/F-12 culture medium without serum at 37 °C for 2h. The cells were washed with PBS to remove excess fluorescent probe and were treated with 0.05% Trypsin-EDTA for 2 min at 37°C to detach the cells from the surface, and centrifuged at 200 g in DMEM/F-12 culture medium before suspension in PBS. Flow cytometry analyses were performed with live cells using an Accuri C6 flow cytometer (BD Biosciences, Le Pont de Claix, France). The data was obtained and analysed using CFlow Sampler (BD Biosciences). Live cells were gated by forward/side scattering for a total of 10,000 events.
Undifferentiated malignant glioma rat cells (F98) were incubated with probe I-1 for two hours at increasing concentrations and the fluorescence intensity measured. Results are represented in figure 7.

[2] = Absorption spectra and molar extinction coefficient (Beer Lambert law); assay type: physicochemical; conditions: for λabs: maximum absorption wavelength
Description: (§1) All the solvents were of analytical grade. Chemicals were purchased from commercial sources. The salts used in stock solutions of metal ions were CaCl2·2H2O, CuCl2·2H2O, FeCl3·6H2O, MgCl2·6H2O, MnCl2·4H2O, ZnBr2. ^1H-NMR and ^13C-NMR were measured on a Bruker avance III-300 MHz spectrometer with chemical shifts reported in ppm (TMS as internal standard). Mass spectra were measured on a Focus GC / DSQ II spectrometer (ThermoScientific) for IC and an API 3000 spectrometer (Applied Biosystems, PE Sciex) for ES. All pH measurements were made with a Mettler Toledo pH-Meter. Fluorescence spectra were recorded on a JASCO FP-8300 spectrofluorometer. Absorption spectra were determined on a VARIAN CARY 300 Bio UV-Visible spectrophotometer. All measurements were done at a set temperature of 25°C. The purity of the dyes were checked by RP-HPLC C-18, eluant: ACN 0.1% TFA/Water 0.1 % TFA, method: 20/80 to 100/0 within 20 min. then 100/0 for 10 min. detection at λabs= 254 nm.
Molar extinction coefficient calculations. Extinction coefficients (ε) were calculated using the Beer Lambert law (equation 3) plotting optical density/absorption versus concentration for the pH probes. The gradient of the plot is equal to ε. A = εc1 [formula] • A = optical density/absorption • ε = extinction coefficient = gradient of the plot • c = concentration • 1= optical path length (1 cm)
The dependence of absorption on pH for probe I-1 was determined in a MOPS buffered aqueous solution. Results are represented in figure 2.

[3] = Fluorescence spectra, quantum yield and dynamic range; assay type: physicochemical; conditions: for λem: excitation at 535 nm, maximum emission wavelength; for Φ: MOPS 30 mM, KCl 100 mM, reference Rhodamine 101, excitation 535 nm; for Dynamic Range: maximal value of (I-Imin)/Imin; for ΦON/ ΦOFF: ratio of quantum yields at pH 4 and pH 10
Description: as §1
Dynamic range. The term dynamic range refers to the maximal value of equation 1 where I is the observed fluorescence intensity and Imin is the minimum fluorescence intensity observed for that probe. The larger the dynamic range the better as it indicates good differentiation between "on" and "off' states. Dynamic Range = ((I-Imin))/(Imin) [formula]
Quantum yield calculations. The fluorescence quantum yields (Φ) were calculated from the gradient of integrated fluorescence intensity (545 to 700 nm) versus optical density. Rhodamine 101 (Φ = 1.0 in absolute ethanol) was used as a reference standard (ref) with the excitation wavelength at 535 nm. Equation 2 was used to determine the Φ values. Φ = Φref (grad.)/(grad.ref).(η^2)/(ηref^2) [formula] • Φ = quantum yield • η = refractive index of the solvent system (η (H2O) = 1.33, ηref (EtOH) = 1.36) grad. = gradient of the curve
ΦON (pH = 4) and ΦOFF (pH = 10) were calculated for each pH probe in MOPS 30 mM, KCl 100 mM.
The dependence of fluorescence intensity on pH for probe I-1 was determined in a MOPS buffered aqueous solution after excitation at 535 nm. Results are represented in figure 3.

[4] = pKa calculation from fluorescence intensity versus pH (Hill equation fit); assay type: physicochemical; conditions: fluorescence intensity at λem,max versus pH, 25°C
Description: pKa calculations. pKa values were calculated by plotting the fluorescence intensity at λem.,max versus the pH. The data was fit to the Hill Equation (equation 4) and the pKa taken as x1/2 as per the Hill equation. base + ((max-base))/(1 + (((x1/2)/(x)))^rate) [formula] • base = y value at minimum x-value • max = y value at maximum x-value • rate = rise rate of the curve • x1/2 = x value at which y = (base + max)/2.
The dependence of fluorescence enhancement on pH was determined for probes I-1, I-3 and I-4. Results are represented in figure 4A, 4B, and 4C respectively. Curve fitting was based on a modified Hill equation from which pKa values were calculated.

[5] = Fluorescence of the ratiometric dual-fluorophore probe as a function of pH; assay type: physicochemical
From the text: • Figure 1 is a drawing schematically representing the red-emitting pH probe of the invention. • Figure 2 is a graph representing the dependence of absorption on pH in a MOPS buffered aqueous solution for compound I-1. • Figure 3 is a graph representing the dependence of fluorescence intensity on pH in a MOPS buffered aqueous solution after excitation at 535 nm, for compound I-1. • Figure 4A-4C are graphs representing the dependence of fluorescence enhancement on pH for compounds I-1 (4A), I-3 (4B) and I-4 (4C). • Figure 5 is a graph representing fluorescence intensities of compound I-1 (5 µM) in presence of a range of metal ions in a MOPS buffer (MOPS 30 mM, KCl 100 mM, pH 7.2). The concentration of cations is 10^-3 M. • Figure 6 is a graph representing CCK-8 test results for compound I-1 indicating cytotoxicity. The probe was incubated with Chinese hamster ovary cells (CHO-K1) for 2 hours at 37°C. • Figure 7 is a dose response diagram for F98 cells incubated with pH probe I-1. • Figure 8 is a graph representing the fluorescence spectrum for the dual-fluorophore I-5 (5 µM) measured in an aqueous MOPS buffered solution/MeOH, 91/9. • Figure 9 is a plot of I∼612/I439 versus pH at excitation wavelength 405 nm for compound I-5. I∼612 and I439 are the respective fluorescence intensities of the system at ∼612nm corresponding to the X-rhodamine red-emission and at 439nm corresponding to the acridone blue-emission.
The peak centred at 439 nm corresponding to emission from the acridone fluorophore and the peak centred at 612 nm to that of the X-rhodamine. The blue acridone emission is not dependent on pH while the red X-rhodamine emission is dependent on pH.
In order to visualize the intensity ratio between the two emission signals a plot of I∼612/I439 versus pH was plotted (figure 9). I∼612 and I439 are the respective fluorescence intensities of the system at ∼612 nm corresponding to the X-rhodamine red-emission and at 439 nm corresponding to the acridone blue-emission.

[6] = in absolute ethanol; reference standard; cited from earlier work
CHO-K1 cells = experiment: Cytotoxicity, CCK-8 cell counting kit; assay type: cell-based, Chinese hamster; conditions: 1% Triton; positive control
Description: Cytotoxicity: CHO-K1 cells (20,000 per well) were seeded in 96 multiple well plates for 24 h before the experiment. Cells (40,000 per well) were incubated with the fluorescent compounds in 100 µL DMEM for 2h at 37°C. The incubation medium was replaced by 100µL fresh DMEM containing 10% of cell-counting solution (Dojindo Laboratories) and further incubated for 2h at 37°C. The absorbance was measured at 450 nm (reference at 620 nm) and was directly related to the number of living cells. Experiments were done in triplicate and repeated twice.
To determine cytotoxicity a CCK-8 cell counting kit was used. This can be bought commercially and relies upon the reduction of a highly water-soluble tetrazolium salt (WST-8). This compound is slightly yellow in color, however, upon reduction to its corresponding formazan species it becomes bright orange. The optical density of the absorbance corresponding to the orange formazan species, detected at 450nm, can be measured and correlated to the number of living cells. A decrease in optical density corresponds directly to a decrease in the quantity of formazan molecules indicating fewer living cells due to cell death/cytotoxicity. The reduction of WST-8 is achieved by exploiting the redox reactions of NAD+, a coenzyme found in all living cells. Cellular NAD+ is constantly being reduced to NADH by dehydrogenases as a natural part of a cell's metabolism. […]

[7] = 5 µM, aqueous MOPS buffered solution/MeOH, 91/9

Molecule	ε ([2]; OFF, deprotonated form: pH 10) [M⁻¹ cm⁻¹]	λabs ([2]; OFF, deprotonated form: pH 10) [nm]	ε ([2]; ON, protonated form: pH 4) [M⁻¹ cm⁻¹]	λabs ([2]; ON, protonated form: pH 4) [nm]	λem ([3]; OFF, deprotonated form: pH 10) [nm]	Φ ([3]; OFF, pH 10)	Φ ([3]; ON, pH 4)	λem ([3]; ON, protonated form: pH 4) [nm]	Dynamic Range [3]	ΦON/ ΦOFF [3]	pKa [4]	further results
C#CCCCn1c2ccccc2c(=O)c2ccccc21	–	–	–	–	–	–	–	–	–	–	–	λabs [1]: 408 nm; λem [1]: 425 nm; FWHM ([1]; full width at half maximum): 49
[N-]=[N+]=NCCCNC(=O)c1cc(C2=c3cc4c5c(c3Oc3c2cc2c6c3CCCN6CCC2)CCC[N+]=5CCC4)ccc1O [Compound I-1]	26706	574	26742	580	596	0.009	0.254	600	88	28	3.96	fluorescence intensity of cells at increasing concentrations of probe (F98 cells): increase of fluorescence with increasing concentration of probe; absorbs light at ([2]; red region of the spectrum): 580 nm
C#CCOC(=O)N1CCN(C(=O)c2cc(C3=c4cc5c6c(c4Oc4c3cc3c7c4CCCN7CCC3)CCC[N+]=6CCC5)ccc2O)CC1 [Compound I-3]	49298	575	72405	580	602	0.016	0.640	601	86	40	7.68	–
C#CCN1CCN(C(=O)c2cc(C3=c4cc5c6c(c4Oc4c3cc3c7c4CCCN7CCC3)CCC[N+]=6CCC5)ccc2O)CC1 [Compound I-4]	20712	574	35109	580	600	0.023	0.798	601	98	35	7.64	–
O=C(NCCCn1cc(CCCn2c3ccccc3c(=O)c3ccccc32)nn1)c1cc(C2=c3cc4c5c(c3Oc3c2cc2c6c3CCCN6CCC2)CCC[N+]=5CCC4)ccc1O [Compound I-5]	–	–	–	–	–	–	–	–	–	–	–	emission peak of the X-rhodamine [5, 7]: 612 nm; emission peak of the acridone fluorophore [5, 7]: 439 nm; I∼612/I439 ratio ([5]; excitation wavelength 405 nm, as the system was acidified): four-fold increase
O=C(O)c1ccccc1C1=c2cc3c4c(c2Oc2c1cc1c5c2CCCN5CCC1)CCC[N+]=4CCC3.[Cl-] [Rhodamine 101]	–	–	–	–	–	–	–	–	–	–	–	Φ [6]: 1.0
Triton	–	–	–	–	–	–	–	–	–	–	–	cell death (CHO-K1 cells): total cell death
